Assay results as given in ChEMBL document CHEMBL1201862, “PubChem BioAssay data set” (2004).
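How tested: cells in 96-well plates exposed to compound for 48 hours at five concentrations. The concentration for 50% growth inhibition is given as GI50.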 The source made the active and inactive calls. No stated cut-off is given here; in the data, active = GI50 up to about 1.1 µM and inactive = higher.

Assays:
Assay in all cases: DTP human tumour cell line panel, 48 h
TK-10 = system: TK-10
SNB-19 = system: SNB-19
RXF 393 = system: RXF 393
SW-620 = system: SW-620
T47D = system: T47D
MDA-MB-231 = system: MDA-MB-231
NCI-H226 = system: NCI-H226
BT-549 = system: BT-549
NCI/ADR-RES = system: NCI/ADR-RES
MOLT-4 = system: MOLT-4
HCT-15 = system: HCT-15
RPMI-8226 = system: RPMI-8226
SK-OV-3 = system: SK-OV-3
A498 = system: A498
DU-145 = system: DU-145
MDA-N = system: MDA-N
CAKI-1 = system: CAKI-1
SK-MEL-2 = system: SK-MEL-2
786-0 = system: 786-0
EKVX = system: EKVX
A549 = system: A549
HCC 2998 = system: HCC 2998
SK-MEL-28 = system: SK-MEL-28
U-251 = system: U-251
OVCAR-5 = system: OVCAR-5
Hs-578T = system: Hs-578T
HOP-62 = system: HOP-62
NCI-H522 = system: NCI-H522
IGROV-1 = system: IGROV-1
SF-268 = system: SF-268
LOX IMVI = system: LOX IMVI
KM12 = system: KM12
ACHN = system: ACHN
MDA-MB-435 = system: MDA-MB-435
UO-31 = system: UO-31
SF-295 = system: SF-295
COLO 205 = system: COLO 205
SN12C = system: SN12C
K562 = system: K562
UACC-257 = system: UACC-257
CCRF-CEM = system: CCRF-CEM
OVCAR-8 = system: OVCAR-8
SK-MEL-5 = system: SK-MEL-5
MCF7 = system: MCF7
PC-3 = system: PC-3
HT-29 = system: HT-29
HCT-116 = system: HCT-116
NCI-H23 = system: NCI-H23
SF-539 = system: SF-539
HL-60 = system: HL-60
HOP-92 = system: HOP-92
M14 = system: M14
OVCAR-3 = system: OVCAR-3
NCI-H460 = system: NCI-H460
UACC-62 = system: UACC-62
SNB-75 = system: SNB-75
Malme-3M = system: Malme-3M
OVCAR-4 = system: OVCAR-4

With `O=C(NC1(C(=O)O)CCCC1)c1ccccc1` the GI50 (TK-10) was > 100 µM (inactive), the GI50 (SNB-19) was > 100 µM (inactive) and the GI50 (RXF 393) was > 100 µM (inactive). For the same compound, the GI50 (SW-620) was > 100 µM (inactive), the GI50 (T47D) was > 100 µM (inactive) and the GI50 (MDA-MB-231) was > 100 µM (inactive). The GI50 (NCI-H226) was > 100 µM (inactive), the GI50 (BT-549) was > 100 µM (inactive) and the GI50 (NCI/ADR-RES) was > 100 µM (inactive). For the same compound, the GI50 (MOLT-4) was > 100 µM (inactive), the GI50 (HCT-15) was over 100 µM and the GI50 (RPMI-8226) was > 100 µM (inactive). The GI50 (SK-OV-3) was > 100 µM (inactive), the GI50 (A498) was > 100 µM (inactive) and the GI50 (DU-145) was > 100 µM (inactive). The GI50 (MDA-N) was > 100 µM (inactive), the GI50 (CAKI-1) was > 100 µM (inactive) and the GI50 (SK-MEL-2) was > 100 µM (inactive). The GI50 (786-0) was > 100 µM (inactive), the GI50 (EKVX) was > 100 µM (inactive) and the GI50 (A549) was > 100 µM (inactive). The GI50 (HCC 2998) was > 100 µM (inactive), the GI50 (SK-MEL-28) was > 100 µM (inactive) and the GI50 (U-251) was > 100 µM (inactive). For the same compound, the GI50 (OVCAR-5) was > 100 µM (inactive), the GI50 (Hs-578T) was > 100 µM (inactive) and the GI50 (HOP-62) was > 100 µM (inactive). The GI50 (NCI-H522) was > 100 µM (inactive), the GI50 (IGROV-1) was > 100 µM (inactive) and the GI50 (SF-268) was > 100 µM (inactive). For the same compound, the GI50 (LOX IMVI) was > 100 µM (inactive), the GI50 (KM12) was > 100 µM (inactive) and the GI50 (ACHN) was > 100 µM (inactive). The GI50 (MDA-MB-435) was > 100 µM (inactive), the GI50 (UO-31) was > 100 µM (inactive) and the GI50 (SF-295) was > 100 µM (inactive). The GI50 (COLO 205) was > 100 µM (inactive), the GI50 (SN12C) was > 100 µM (inactive) and the GI50 (K562) was > 100 µM (inactive). For the same compound, the GI50 (UACC-257) was > 100 µM (inactive), the GI50 (CCRF-CEM) was > 100 µM (inactive) and the GI50 (OVCAR-8) was > 100 µM (inactive). For the same compound, the GI50 (SK-MEL-5) was > 100 µM (inactive), the GI50 (MCF7) was > 100 µM (inactive) and the GI50 (PC-3) was > 100 µM (inactive). For the same compound, the GI50 (HT-29) was > 100 µM (inactive), the GI50 (HCT-116) was > 100 µM (inactive) and the GI50 (NCI-H23) was > 100 µM (inactive). For the same compound, the GI50 (SF-539) was > 100 µM (inactive), the GI50 (HL-60) was > 100 µM (inactive) and the GI50 (HOP-92) was > 100 µM (inactive). The GI50 (M14) was > 100 µM (inactive), the GI50 (OVCAR-3) was > 100 µM (inactive) and the GI50 (NCI-H460) was > 100 µM (inactive). The GI50 (UACC-62) was > 100 µM (inactive).
For `O=C(O)CCSCc1ccc(I)cc1`, the GI50 (TK-10) was > 100 µM (inactive), the GI50 (SNB-19) was > 100 µM (inactive) and the GI50 (RXF 393) was 96.4 µM (inactive). The GI50 (SW-620) was > 100 µM (inactive), the GI50 (T47D) was > 100 µM (inactive) and the GI50 (MDA-MB-231) was > 100 µM (inactive). The GI50 (NCI-H226) was > 100 µM (inactive), the GI50 (SNB-75) was 72.4 µM (inactive) and the GI50 (BT-549) was > 100 µM (inactive). The GI50 (NCI/ADR-RES) was > 100 µM (inactive), the GI50 (MOLT-4) was > 100 µM (inactive) and the GI50 (HCT-15) was over 100 µM. For the same compound, the GI50 (RPMI-8226) was > 100 µM (inactive), the GI50 (SK-OV-3) was > 100 µM (inactive) and the GI50 (A498) was > 100 µM (inactive). The GI50 (DU-145) was > 100 µM (inactive), the GI50 (MDA-N) was > 100 µM (inactive) and the GI50 (CAKI-1) was > 100 µM (inactive). For the same compound, the GI50 (SK-MEL-2) was > 100 µM (inactive), the GI50 (786-0) was > 100 µM (inactive) and the GI50 (EKVX) was > 100 µM (inactive). For the same compound, the GI50 (Malme-3M) was > 100 µM (inactive), the GI50 (A549) was > 100 µM (inactive) and the GI50 (OVCAR-4) was > 100 µM (inactive). For the same compound, the GI50 (HCC 2998) was > 100 µM (inactive), the GI50 (SK-MEL-28) was > 100 µM (inactive) and the GI50 (U-251) was > 100 µM (inactive). For the same compound, the GI50 (OVCAR-5) was > 100 µM (inactive), the GI50 (Hs-578T) was > 100 µM (inactive) and the GI50 (HOP-62) was > 100 µM (inactive). For the same compound, the GI50 (NCI-H522) was > 100 µM (inactive), the GI50 (IGROV-1) was > 100 µM (inactive) and the GI50 (SF-268) was > 100 µM (inactive). For the same compound, the GI50 (LOX IMVI) was > 100 µM (inactive), the GI50 (KM12) was > 100 µM (inactive) and the GI50 (ACHN) was > 100 µM (inactive). The GI50 (MDA-MB-435) was > 100 µM (inactive), the GI50 (UO-31) was > 100 µM (inactive) and the GI50 (SF-295) was > 100 µM (inactive). For the same compound, the GI50 (COLO 205) was > 100 µM (inactive), the GI50 (SN12C) was > 100 µM (inactive) and the GI50 (K562) was > 100 µM (inactive). For the same compound, the GI50 (UACC-257) was > 100 µM (inactive), the GI50 (CCRF-CEM) was > 100 µM (inactive) and the GI50 (OVCAR-8) was > 100 µM (inactive). The GI50 (SK-MEL-5) was > 100 µM (inactive), the GI50 (MCF7) was > 100 µM (inactive) and the GI50 (PC-3) was > 100 µM (inactive). The GI50 (HT-29) was > 100 µM (inactive), the GI50 (HCT-116) was > 100 µM (inactive) and the GI50 (NCI-H23) was > 100 µM (inactive). For the same compound, the GI50 (HL-60) was > 100 µM (inactive), the GI50 (HOP-92) was > 100 µM (inactive) and the GI50 (M14) was > 100 µM (inactive). The GI50 (OVCAR-3) was > 100 µM (inactive), the GI50 (NCI-H460) was > 100 µM (inactive) and the GI50 (UACC-62) was > 100 µM (inactive).
